In article PMC6152703, “Evaluation of the Antidiabetic Activity and Chemical Composition of Geranium collinum Root Extracts—Computational and Experimental Investigations” (Molecules : A Journal of Synthetic Chemistry and Natural …, 2017):
Where two headings read alike, the source gives them in different places. Each block holds one compound with its values, some of them ahead of it.

Key:
PTP-1B = target: T1, PTP-1B (Homo sapiens, UniProt P18031); experiment: PTP-1B enzyme inhibition assay; format: biochemical; settings: in vitro enzyme inhibition; for IC50: read-out: Antidiabetic Activity (PTP-1B) IC50 Values (converted)
T1 sequence (P18031 1-435): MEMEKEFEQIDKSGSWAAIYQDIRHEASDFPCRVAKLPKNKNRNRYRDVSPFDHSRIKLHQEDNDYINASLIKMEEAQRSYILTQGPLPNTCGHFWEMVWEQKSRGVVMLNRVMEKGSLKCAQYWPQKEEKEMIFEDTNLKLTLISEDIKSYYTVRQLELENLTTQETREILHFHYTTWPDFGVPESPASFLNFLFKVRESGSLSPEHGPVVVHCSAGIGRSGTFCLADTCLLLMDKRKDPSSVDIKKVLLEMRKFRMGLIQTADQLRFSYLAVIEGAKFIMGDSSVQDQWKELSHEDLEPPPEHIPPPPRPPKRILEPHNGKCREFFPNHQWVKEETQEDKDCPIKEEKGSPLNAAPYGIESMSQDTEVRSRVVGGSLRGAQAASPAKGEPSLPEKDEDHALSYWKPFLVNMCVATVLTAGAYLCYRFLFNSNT
Description: (§1) The antidiabetic effect of gallic acid was evaluated in vitro on inhibitory enzymes (α-glucosidase and α-amylase). Antidiabetic activity was determined using PTP-1B inhibition and α-glucosidase procedures. PTP-1B is a negative regulator of the insulin signaling pathway. All extracts of G. collinum were obtained after a period of extraction of 2 h. […] It is well known that polyphenols can provide health benefits to humans attributed to their strong radical-scavenging and antioxidant effects.

[1] = DPPH scavenging assay (antioxidant activity); settings: 30 min, 517 nm
Description: The majority of the antioxidant activities (such as free radical scavenging) of herbal medicines, vegetables and fruits may be due to their phenolic compounds. A lower IC50 value than the standard vitamin C implied a significant antioxidant activity of the tested samples.
Antioxidant activity was measured using the DPPH (1,1-diphenyl-2-picrylhydrazyl) scavenging assay procedure as published in the literature. The extracts were dissolved in DMSO in a concentration of 100 µg/mL. Different concentrations of each extract were prepared in DMSO. Sample solution in different concentrations was added at 2.5 mL in each well of the 96 micro well plate. Into each well was added 1 mL of 0.3 mM DPPH solution in ethanol to produce the test solutions. DMSO (1 mL) was added to produce the blank solutions. Negative control sample was prepared by mixing 1 mL of DPPH solution with 2.5 mL of DMSO. The solutions were kept in the dark at room temperature for 30 min. Absorbance was measured at the wavelength of 517 nm. Ascorbic acid (vitamin C) was used as the standard sample.

α-glucosidase = α-glucosidase (Saccharomyces cerevisiae, UniProt P53341); format: biochemical
Description: as §1
α-Glucosidase inhibitory activities were evaluated according to the chromogenic method described by.

Chain of α-glucosidase (P53341 whole entry): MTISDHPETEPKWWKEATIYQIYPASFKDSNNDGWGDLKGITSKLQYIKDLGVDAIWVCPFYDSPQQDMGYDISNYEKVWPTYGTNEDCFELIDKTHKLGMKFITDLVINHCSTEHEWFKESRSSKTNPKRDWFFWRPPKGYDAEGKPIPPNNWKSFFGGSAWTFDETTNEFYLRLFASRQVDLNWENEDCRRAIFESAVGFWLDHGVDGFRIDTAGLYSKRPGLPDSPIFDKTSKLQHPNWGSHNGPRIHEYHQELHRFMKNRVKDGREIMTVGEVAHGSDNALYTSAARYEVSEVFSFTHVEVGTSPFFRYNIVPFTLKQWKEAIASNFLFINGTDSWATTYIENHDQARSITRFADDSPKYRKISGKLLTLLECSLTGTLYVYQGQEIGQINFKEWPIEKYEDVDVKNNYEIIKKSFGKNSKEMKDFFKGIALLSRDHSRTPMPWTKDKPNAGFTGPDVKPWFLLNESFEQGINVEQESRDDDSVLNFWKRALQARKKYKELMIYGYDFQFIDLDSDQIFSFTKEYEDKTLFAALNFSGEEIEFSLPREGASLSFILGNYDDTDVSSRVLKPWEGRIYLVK

Antidiabetic Activity (PTP-1B) IC50 Values (PTP-1B): No effect
SMILES: CC[C@H](CC[C@@H](C)[C@H]1CC[C@H]2[C@@H]3CC=C4C[C@@H](O[C@@H]5O[C@H](CO)[C@@H](O)[C@H](O)[C@H]5O)CC[C@]4(C)[C@H]3CC[C@]12C)C(C)C [Daucosterol, β-Sitosterol-3-O-β-D-glucopyranoside]

Antioxidant Activity IC50 Values [1]: 5.34 ± 0.42 µg/mL
SMILES: O=C1O[C@H]([C@@H](O)CO)C(O)=C1O [Vitamin C, Ascorbic acid]

SMILES: COc1c(O)cc2c(=O)oc3c(OC)c(O)cc4c(=O)oc1c2c34 [3,3′-Di-O-methylellagic acid]
IC50 (PTP-1B): 19 µM
Antidiabetic Activity (α-Glucosidase) IC50 Values (α-glucosidase; in vitro enzyme inhibition): No effect

SMILES: O=C(O[C@@H]1O[C@@H]2COC(=O)c3cc(O)c(O)c(O)c3-c3c(cc(O)c(O)c3O)C(=O)O[C@H]([C@H]1O)[C@@H]2O)c1cc(O)c(O)c(O)c1 [Corilagin, Corilagin (1-O-galloyl-3,6-O-hexahydroxydiphenoyl-β-D-glucose)]
IC50 (PTP-1B): 1.37 µM
antidiabetic activities in the α-glucosidase inhibition assay (in words) (α-glucosidase; in vitro enzyme inhibition): potent antidiabetic activities

IC50 (PTP-1B): 199 µM
SMILES: O=C(O)/C=C/c1ccc(O)c(O)c1 [Caffeic acid]

SMILES: COc1cc2c(=O)oc3c(OC)c(OC)cc4c(=O)oc(c1OC)c2c34 [3,3′,4,4′-Tetra-O-methylellagic acid]
IC50 (PTP-1B): 60.4 µM
Antidiabetic Activity (α-Glucosidase) IC50 Values (α-glucosidase; in vitro enzyme inhibition): No effect

SMILES: O=C(O)c1cc(O)c(O)c(O)c1 [Gallic acid]
Antidiabetic Activity (PTP-1B) IC50 Values (PTP-1B): No effect

SMILES: Oc1cc(O)c2c(c1)O[C@H](c1ccc(O)c(O)c1)[C@H](O)C2 [Epicatechin, (–)-Epicatechin]
IC50 (PTP-1B): 0.792 µM
antidiabetic activities in the α-glucosidase inhibition assay (in words) (α-glucosidase): potent antidiabetic activities

SMILES: Oc1cc(O)c2c(c1)O[C@H](c1cc(O)c(O)c(O)c1)[C@H](O)C2 [Epigallocatechin, (–)-Epigallocatechin (3,3′,4,5,5′,7-flavanhexol)]
Antidiabetic Activity (PTP-1B) IC50 Values (PTP-1B): No effect

SMILES: O=c1c(O)c(-c2ccc(O)c(O)c2)oc2cc(O)cc(O)c12 [Quercetin]
antidiabetic activities in the α-glucosidase inhibition assay (in words) (α-glucosidase; in vitro enzyme inhibition): potent antidiabetic activities

SMILES: Oc1cc(O)c2c(c1)OC(c1ccc(O)c(O)c1)C(O)C2 (single isomer, unassigned; (+)) [Catechin, (+)-Catechin]
IC50 (PTP-1B): 2.14 µM
antidiabetic activities in the α-glucosidase inhibition assay (in words) (α-glucosidase): potent antidiabetic activities
